According to PubChem BioAssay (NCI):
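All cell lines were grown in 96-well plates and treated with compound for 48 hours. GI50 marks 50% less growth. TGI: concentration producing complete growth inhibition.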

Experiments:
Test in all cases: inhibition of tumour cell growth, NCI panel, 48 h
SF-295 CNS = system: SF-295 CNS
HOP-92 NSCLC = system: HOP-92 NSCLC
MOLT-4 leukemia = system: MOLT-4 leukemia
NCI-H522 lung = system: NCI-H522 lung
SF-539 CNS = system: SF-539 CNS
SK-MEL-5 melanoma = system: SK-MEL-5 melanoma
HL-60(TB) leukemia = system: HL-60(TB) leukemia
NCI/ADR-RES ovarian = system: NCI/ADR-RES ovarian
ACHN renal = system: ACHN renal
SK-MEL-2 melanoma = system: SK-MEL-2 melanoma
HOP-62 NSCLC = system: HOP-62 NSCLC
UACC-257 melanoma = system: UACC-257 melanoma
SK-MEL-28 melanoma = system: SK-MEL-28 melanoma
786-0 renal = system: 786-0 renal
KM12 colon = system: KM12 colon
MCF7 breast = system: MCF7 breast
SW-620 colon = system: SW-620 colon
LOX IMVI melanoma = system: LOX IMVI melanoma
OVCAR-5 ovarian = system: OVCAR-5 ovarian
HT29 colon = system: HT29 colon
NCI-H226 lung = system: NCI-H226 lung
HCC-2998 colon = system: HCC-2998 colon
HCT-15 colon = system: HCT-15 colon
COLO 205 colon = system: COLO 205 colon
SK-OV-3 ovarian = system: SK-OV-3 ovarian
SNB-75 CNS = system: SNB-75 CNS
OVCAR-8 ovarian = system: OVCAR-8 ovarian
A549 NSCLC = system: A549 NSCLC
IGROV1 ovarian = system: IGROV1 ovarian
SNB-19 CNS = system: SNB-19 CNS
CCRF-CEM leukemia = system: CCRF-CEM leukemia
EKVX NSCLC = system: EKVX NSCLC
NCI-H460 lung = system: NCI-H460 lung
RXF 393 renal = system: RXF 393 renal
CAKI-1 renal = system: CAKI-1 renal
MALME-3M melanoma = system: MALME-3M melanoma
MDA-MB-435 = system: MDA-MB-435
K-562 leukemia = system: K-562 leukemia
TK-10 renal = system: TK-10 renal
HS 578T breast = system: HS 578T breast
T-47D breast = system: T-47D breast
BT-549 breast = system: BT-549 breast
NCI-H23 lung = system: NCI-H23 lung
A498 renal = system: A498 renal
SR leukemia = system: SR leukemia
M14 melanoma = system: M14 melanoma
UO-31 renal = system: UO-31 renal
U251 CNS = system: U251 CNS
RPMI-8226 leukemia = system: RPMI-8226 leukemia
MDA-MB-231 breast = system: MDA-MB-231 breast
PC-3 prostate = system: PC-3 prostate
OVCAR-3 ovarian = system: OVCAR-3 ovarian
UACC-62 melanoma = system: UACC-62 melanoma
HCT-116 colon = system: HCT-116 colon
OVCAR-4 ovarian = system: OVCAR-4 ovarian
SF-268 CNS = system: SF-268 CNS
SN12C renal = system: SN12C renal
DU-145 prostate = system: DU-145 prostate

In the case of `O=S(=O)(NCCCNc1nccc(-c2c(-c3ccc(F)c(O)c3)nc3sccn23)n1)c1ccc(F)cc1`, the GI50 (SF-295 CNS) was 2.19 µM, the TGI (SF-295 CNS) was 5.27 µM and the GI50 (HOP-92 NSCLC) was 1.46 µM. It also gave a TGI (HOP-92 NSCLC) of 6.24 µM, a GI50 (MOLT-4 leukemia) of 1.73 µM and a TGI (MOLT-4 leukemia) of 5.57 µM. The GI50 (NCI-H522 lung) was 1.93 µM, the TGI (NCI-H522 lung) was 6.04 µM and the GI50 (SF-539 CNS) was 3.5 µM. It also gave a TGI (SF-539 CNS) of 17.4 µM, a GI50 (SK-MEL-5 melanoma) of 1.42 µM and a TGI (SK-MEL-5 melanoma) of 2.8 µM. For the same molecule, the GI50 (HL-60(TB) leukemia) was 1.86 µM, the TGI (HL-60(TB) leukemia) was 5.26 µM and the GI50 (NCI/ADR-RES ovarian) was 3.44 µM. It also gave a TGI (NCI/ADR-RES ovarian) of 28 µM, a GI50 (ACHN renal) of 2.24 µM and a TGI (ACHN renal) of 8.86 µM. The GI50 (SK-MEL-2 melanoma) was 0.717 µM, the TGI (SK-MEL-2 melanoma) was 3.01 µM and the GI50 (HOP-62 NSCLC) was 2.78 µM. The TGI (HOP-62 NSCLC) was 8.7 µM, the GI50 (UACC-257 melanoma) was 0.262 µM and the TGI (UACC-257 melanoma) was 2.19 µM. For the same molecule, the GI50 (SK-MEL-28 melanoma) was 0.104 µM, the TGI (SK-MEL-28 melanoma) was > 100 µM and the GI50 (786-0 renal) was 3.35 µM. For the same molecule, the TGI (786-0 renal) was > 100 µM, the GI50 (KM12 colon) was 2.67 µM and the TGI (KM12 colon) was 8.36 µM. The GI50 (MCF7 breast) was 2.39 µM, the TGI (MCF7 breast) was 7.76 µM and the GI50 (SW-620 colon) was 3.9 µM. The TGI (SW-620 colon) was > 100 µM, the GI50 (LOX IMVI melanoma) was 0.578 µM and the TGI (LOX IMVI melanoma) was 5.53 µM. For the same molecule, the GI50 (OVCAR-5 ovarian) was 3.41 µM, the TGI (OVCAR-5 ovarian) was > 100 µM and the GI50 (HT29 colon) was 2.94 µM. For the same molecule, the TGI (HT29 colon) was 37.8 µM, the GI50 (NCI-H226 lung) was 2.38 µM and the TGI (NCI-H226 lung) was 6.98 µM. It also gave a GI50 (HCC-2998 colon) of 2.86 µM, a TGI (HCC-2998 colon) of 7.17 µM and a GI50 (HCT-15 colon) of 2.42 µM. For the same molecule, the TGI (HCT-15 colon) was 10.8 µM, the GI50 (COLO 205 colon) was 1.48 µM and the TGI (COLO 205 colon) was 9.67 µM. The GI50 (SK-OV-3 ovarian) was 2.22 µM, the TGI (SK-OV-3 ovarian) was 7.01 µM and the GI50 (SNB-75 CNS) was 2.02 µM. For the same molecule, the TGI (SNB-75 CNS) was 8.38 µM, the GI50 (OVCAR-8 ovarian) was 2.3 µM and the TGI (OVCAR-8 ovarian) was > 100 µM. It also gave a GI50 (A549 NSCLC) of 3.02 µM, a TGI (A549 NSCLC) of 47.1 µM and a GI50 (IGROV1 ovarian) of 1.51 µM. For the same molecule, the TGI (IGROV1 ovarian) was 5.88 µM, the GI50 (SNB-19 CNS) was 3.33 µM and the TGI (SNB-19 CNS) was > 100 µM. For the same molecule, the GI50 (CCRF-CEM leukemia) was 1.58 µM, the TGI (CCRF-CEM leukemia) was 6.07 µM and the GI50 (EKVX NSCLC) was 3.1 µM. For the same molecule, the TGI (EKVX NSCLC) was 14.9 µM, the GI50 (NCI-H460 lung) was 2.37 µM and the TGI (NCI-H460 lung) was 6.35 µM. For the same molecule, the GI50 (RXF 393 renal) was 1.53 µM, the TGI (RXF 393 renal) was 4.68 µM and the GI50 (CAKI-1 renal) was 3.57 µM. The TGI (CAKI-1 renal) was > 100 µM, the GI50 (MALME-3M melanoma) was 0.0316 µM and the TGI (MALME-3M melanoma) was 1.01 µM. The GI50 (MDA-MB-435) was 0.636 µM, the TGI (MDA-MB-435) was 3.35 µM and the GI50 (K-562 leukemia) was 1.98 µM. The TGI (K-562 leukemia) was > 100 µM, the GI50 (TK-10 renal) was 4.33 µM and the TGI (TK-10 renal) was 86.3 µM. It also gave a GI50 (HS 578T breast) of 2.62 µM, a TGI (HS 578T breast) of 7.07 µM and a GI50 (T-47D breast) of 2.24 µM. For the same molecule, the TGI (T-47D breast) was 6.21 µM, the GI50 (BT-549 breast) was 1.84 µM and the TGI (BT-549 breast) was 7.14 µM. For the same molecule, the GI50 (NCI-H23 lung) was 2.31 µM, the TGI (NCI-H23 lung) was 7.39 µM and the GI50 (A498 renal) was 2.86 µM. For the same molecule, the TGI (A498 renal) was 6.81 µM, the GI50 (SR leukemia) was 2.13 µM and the TGI (SR leukemia) was > 100 µM. For the same molecule, the GI50 (M14 melanoma) was 0.0481 µM, the TGI (M14 melanoma) was 3.14 µM and the GI50 (UO-31 renal) was 2.96 µM. For the same molecule, the TGI (UO-31 renal) was 7.77 µM, the GI50 (U251 CNS) was 3.47 µM and the TGI (U251 CNS) was > 100 µM.

For `O=C(Nc1ccccc1)c1cc2ccccc2c(N=Nc2ccc([N+](=O)[O-])cc2)c1O`, the TGI (SF-295 CNS) was > 100 µM, the TGI (HOP-92 NSCLC) was > 100 µM and the TGI (MOLT-4 leukemia) was > 100 µM. For the same molecule, the TGI (NCI-H522 lung) was > 100 µM, the TGI (SK-MEL-5 melanoma) was > 100 µM and the TGI (HL-60(TB) leukemia) was > 100 µM. For the same molecule, the TGI (NCI/ADR-RES ovarian) was > 100 µM, the TGI (ACHN renal) was > 100 µM and the TGI (SK-MEL-2 melanoma) was > 100 µM. The TGI (HOP-62 NSCLC) was > 100 µM, the TGI (UACC-257 melanoma) was > 100 µM and the TGI (RPMI-8226 leukemia) was > 100 µM. For the same molecule, the TGI (SK-MEL-28 melanoma) was > 100 µM, the TGI (786-0 renal) was > 100 µM and the TGI (MDA-MB-231 breast) was > 100 µM. The TGI (KM12 colon) was > 100 µM, the TGI (SW-620 colon) was > 100 µM and the TGI (LOX IMVI melanoma) was > 100 µM. For the same molecule, the TGI (OVCAR-5 ovarian) was > 100 µM, the TGI (HT29 colon) was > 100 µM and the TGI (NCI-H226 lung) was > 100 µM. The TGI (HCT-15 colon) was > 100 µM, the TGI (COLO 205 colon) was > 100 µM and the TGI (SK-OV-3 ovarian) was > 100 µM. For the same molecule, the TGI (SNB-75 CNS) was > 100 µM, the TGI (PC-3 prostate) was > 100 µM and the TGI (OVCAR-8 ovarian) was > 100 µM. The TGI (A549 NSCLC) was > 100 µM, the TGI (IGROV1 ovarian) was > 100 µM and the TGI (OVCAR-3 ovarian) was > 100 µM. The TGI (SNB-19 CNS) was > 100 µM, the TGI (UACC-62 melanoma) was > 100 µM and the TGI (HCT-116 colon) was > 100 µM. The TGI (OVCAR-4 ovarian) was > 100 µM, the TGI (CCRF-CEM leukemia) was 46.4 µM and the TGI (EKVX NSCLC) was > 100 µM. The TGI (RXF 393 renal) was > 100 µM, the TGI (CAKI-1 renal) was > 100 µM and the TGI (SF-268 CNS) was > 100 µM. The TGI (MALME-3M melanoma) was > 100 µM, the TGI (MDA-MB-435) was > 100 µM and the TGI (K-562 leukemia) was > 100 µM. For the same molecule, the TGI (SN12C renal) was > 100 µM, the TGI (TK-10 renal) was > 100 µM and the TGI (HS 578T breast) was > 100 µM. For the same molecule, the TGI (T-47D breast) was > 100 µM, the TGI (BT-549 breast) was > 100 µM and the TGI (NCI-H23 lung) was > 100 µM. The TGI (M14 melanoma) was > 100 µM, the TGI (UO-31 renal) was > 100 µM and the TGI (U251 CNS) was > 100 µM. For the same molecule, the TGI (DU-145 prostate) was > 100 µM.
